O=C(O)Cc1c[nH]c2ccccc12
solubility (mole fraction)
Conditions	278.15 K	283.15 K	288.15 K	293.15 K	298.15 K	303.15 K	308.15 K	313.15 K	318.15 K	323.15 K
in 1,4-dioxane	–	–	2.06e-05	2.2e-05	2.35e-05	2.51e-05	2.69e-05	2.89e-05	3.12e-05	3.38e-05
in DMF	2.98e-05	3.12e-05	3.29e-05	3.47e-05	3.67e-05	3.9e-05	4.16e-05	4.45e-05	4.74e-05	5.07e-05
in DMSO	–	–	–	3.73e-05	3.95e-05	4.2e-05	4.45e-05	4.77e-05	5.12e-05	5.48e-05
in acetone	2.49e-05	2.6e-05	2.73e-05	2.89e-05	3.07e-05	3.26e-05	3.49e-05	3.73e-05	3.98e-05	4.25e-05
in acetonitrile	6.51e-06	6.98e-06	7.47e-06	8.03e-06	8.68e-06	9.36e-06	1.01e-05	1.1e-05	1.2e-05	1.3e-05
in chloroform	2.88e-06	2.99e-06	3.11e-06	3.29e-06	3.48e-06	3.62e-06	3.88e-06	4.07e-06	4.34e-06	4.61e-06
in ethanol	1.17e-05	1.25e-05	1.35e-05	1.47e-05	1.6e-05	1.73e-05	1.86e-05	2.03e-05	2.22e-05	2.41e-05
in ethyl acetate	3.44e-05	3.64e-05	3.85e-05	4.09e-05	4.32e-05	4.58e-05	4.85e-05	5.13e-05	5.43e-05	5.76e-05
in isopropanol	2.15e-05	2.27e-05	2.41e-05	2.56e-05	2.71e-05	2.88e-05	3.1e-05	3.34e-05	3.58e-05	3.88e-05
in methanol	8.95e-06	9.76e-06	1.05e-05	1.17e-05	1.27e-05	1.38e-05	1.53e-05	1.67e-05	1.83e-05	1.99e-05
in n-butanol	2.78e-05	2.9e-05	3.04e-05	3.2e-05	3.39e-05	3.6e-05	3.83e-05	4.09e-05	4.34e-05	4.65e-05
in n-propanol	1.45e-05	1.54e-05	1.65e-05	1.8e-05	1.93e-05	2.08e-05	2.24e-05	2.42e-05	2.62e-05	2.85e-05

From BigSolDB 2.1
